Where two headings read alike, the source gives them in different places.
Tests used:
anti-GA IgG antibodies = system: anti-GA IgG antibodies
Experimental: Sample positivity of each screen positive sample of each patient was confirmed in further testing by comparison to the confirmatory cut-point.
Unspiked and spiked samples were tested according to the method but only in 1/500 dilution.
The confirmatory cut-point factor is calculated to set the false positive rate at 1%. Reported value (RV) were the unspiked sample avg. ODA and the spiked sample avg. OD. RV were obtained from 50 naïve individuals, each measured 4 times over 2 days by 2 analysts.
Percent RA inhibition was calculated according to the following equation:
Percent inhibition=100×(1−(RA of spiked)/(RA of unspiked))

[1] = system: anti-GA specific IgG antibodies; details: for average anti-GA IgG response (Screening RA %): GA treatment group, 40 mg sc three times a week, 1/500 dilution
Experimental: The screening results of the 1/500 dilution are presented as RA %.
Analysis was performed using ELISA.
Each plate should include the following samples: • System suitability Test (SST)—wells coated with purified human IgG. • SST Blank—wells coated with the blocking buffer only (w/o hIgG and human serum sample). […] To be subtracted from the NHS & PHS controls and from the human tested serum samples. • Sample 1-Sample 13—different tested serum samples. Each sample applied in two dilutions ( 1/500 and 1/1000)
All tested human serum samples of different time points from the same individual should be tested (in triplicates), if possible, in the same plate to allow comparison.
Prepare a 1.0 ug/ml dilution of hIgG coating antibody and coat the plate at 100 ul/well.
For washing, empty plate and tap out residual liquid, fill each well with 300 ul washing buffer and then invert plate to empty, tap out residual liquid onto paper towel.
For blocking, add 300 ul/well of blocking buffer to each well, seal the plate and incubate at room temperature for 1 hour, and wash the plates three times.
For sample loading, add 100 ul diluted test samples and/or control sample and/or sample buffer to each well. Seal the plate and incubate for 2 hours at room temperature, empty plate, tap out residual liquid and wash three times.
For detection antibody, prepare 1:4000 dilution of the biotinylated anti-hIgG detection antibody by diluting 2.5 ul biotinylated anti-hIgG antibody to 10 ml of blocking buffer. Prepare 10 ml biotinylated anti-human IgG detection antibody solution per plate and add 100 ul of the prepared detection antibodies to each well. Seal the plate and incubate for 1 hour at room temperature. Then empty plate, tap out residual liquid and wash five times.
For streptavidin conjugated horseradish peroxidase (HRP), prepare working dilution of the streptavidin conjugated HRP in blocking buffer. Then add 100 ul/well of the prepared streptavidin conjugated HRP solution, following shaking the plate for a few seconds. Then incubate the plate for 1 hour at room temperature in the dark, following washing five times.
For enzymatic reaction, TMB (3,3,5,5-tetramethylbenzidine peroxidase) is used. Mix equal volumes of TMB Peroxidase Substrate (Part 1) and Peroxidase Substrate Solution B in a clean glass container immediately prior to use. Dispense 100 ul of TMB solution into each well and incubate the plate for 15-30 minutes in the dark at 37° C. Stop the reaction with 100 ul stop solution per well (1N sulphuric acid) and shake the plate for a few seconds. Read the absorbance (ABS) of each well at 450 nm.
For blank subtraction, subtract the calculated average absorbance (ABS) of SST blank from average (AVG) ABS value of the SST. Subtract the calculated AVG ABS of blank from AVG ABS value of each test sample including PHS and NHS control samples. All data points that fall below 0.000 are set equal to 0.000.
To overcome plate-to-plate variability, the results are normalized by dividing the absorbance (ABS) of each test sample (including the controls) with that of the SST. This value is the Relative Absorbance (RA) ratio and is multiplied by 100 expressed in percent. These values are the reported response values of the test. The RA value is calculated according to the following equation: […]
The RA values of the normal human serum samples obtained from untreated individuals are used to calculate a cut-point value of the test. The cut-point value is used to distinguish between negative and positive human serum samples. In case that the calculated cut point value of the study is lower than the RA of the detection limit (2*Blank) of the study, the cut point is calculated as follows: […]
The results of the other dilution ( 1/1000) will be reported for monitoring, to allow semi quantitative comparison of the tested serum defined as positive.
All samples of each patient were tested on the same plate, whenever it was possible.

L-glutamic acid polymer with L-alanine, L-lysine and L-tyrosine, acetate (salt) [GA]
Inhibition (%) (anti-GA IgG antibodies; Baseline visit; one line per patient): 68.2%
Inhibition (%) (anti-GA IgG antibodies; Baseline; confirmation test, spiking with GA; each line one patient): 65.5%
Inhibition (%) (anti-GA IgG antibodies; Month 1; confirmation test): 63.8%
Confirmed Positivity (Yes/No) (anti-GA IgG antibodies; Month 1; individual patient): YES
Inhibition (%) (anti-GA IgG antibodies; Month 1 visit, individual patient): 18.7%
Inhibition (%) (anti-GA IgG antibodies; Month 1 visit; individual patient): 63.2%
Confirmed Positivity (Yes/No) (anti-GA IgG antibodies; Month 3; individual patient): YES
Inhibition (%) (anti-GA IgG antibodies; Month 3 visit, individual patient): 47.0%
Inhibition (%) (anti-GA IgG antibodies; Month 6; confirmation test): 61.1%
Confirmed Positivity (Yes/No) (anti-GA IgG antibodies; Month 6; individual patient): YES
Confirmed Positivity (Yes/No) (anti-GA IgG antibodies; Month 6 visit, individual patient): YES
Inhibition (%) (anti-GA IgG antibodies; Month 9; confirmation test): 56.8%
Confirmed Positivity (Yes/No) (anti-GA IgG antibodies; Month 9; individual patient): YES
Confirmed Positivity (Yes/No) (anti-GA IgG antibodies; Month 9 visit, individual patient): YES
Inhibition (%) (anti-GA IgG antibodies; Month 12; confirmation test): 58.5%
Confirmed Positivity (Yes/No) (anti-GA IgG antibodies; Month 12; individual patient): YES
Confirmed Positivity (Yes/No) (anti-GA IgG antibodies; Month 12 visit, individual patient): YES
Inhibition (%) (anti-GA IgG antibodies; Month 18; confirmation test): 60.2%
Confirmed Positivity (Yes/No) (anti-GA IgG antibodies; Month 18; individual patient): YES
Confirmed Positivity (Yes/No) (anti-GA IgG antibodies; Month 18 visit, individual patient): YES
Inhibition (%) (anti-GA IgG antibodies; Month 24; confirmation test): 66.8%
Inhibition (%) (anti-GA IgG antibodies; Month 24; confirmation test; individual patient): 66.7%
Confirmed Positivity (Yes/No) (anti-GA IgG antibodies; Month 24; individual patient): YES
Confirmed Positivity (Yes/No) (anti-GA IgG antibodies; Month 24 visit, individual patient): YES
Inhibition (%) (anti-GA IgG antibodies; confirmation test, individual patient, Month 1): 63.3%
Inhibition (%) (anti-GA IgG antibodies; confirmation test, individual patient, Month 18): 59.5%
Inhibition (%) (anti-GA IgG antibodies; confirmation test, individual patient, Month 24): 58.2%
presence of anti-GA IgG Abs in tested patients (anti-GA IgG antibodies; every tested patient (262 patients)): confirmed positive
positivity of non-baseline samples verified in the confirmatory test (anti-GA IgG antibodies; screen positive non-baseline samples; confirmatory cut-point […]): 99.9%
Sample Positivity ([1]; Baseline visit, RA % vs cut-point 1.4, one line per patient): Negative
Sample Positivity ([1]; Baseline, cut-point RA % of 1.4, individual patient): Negative
average anti-GA IgG response (Screening RA %) ([1]; Baseline): 0.4568 RA %
average anti-GA IgG response (Screening RA %) ([1]; Month 1): 34.75 RA %
average anti-GA IgG response (Screening RA %) ([1]; Month 3): 67.72 RA %
average anti-GA IgG response (Screening RA %) ([1]; Month 6): 39.69 RA %
average anti-GA IgG response (Screening RA %) ([1]; Month 9): 30.61 RA %
average anti-GA IgG response (Screening RA %) ([1]; Month 12): 28.94 RA %
average anti-GA IgG response (Screening RA %) ([1]; Month 18): 24.9 RA %
average anti-GA IgG response (Screening RA %) ([1]; Month 24): 23.36 RA %
Sample Positivity ([1]; Month 1, RA % vs cut-point 1.4, one line per patient): POSITIVE
Sample Positivity ([1]; Month 2 (so in the source), RA % vs cut-point 1.4, patient 537414): POSITIVE
Sample Positivity ([1]; Month 3, RA % vs cut-point 1.4, one line per patient): POSITIVE
Sample Positivity ([1]; Month 3, cut-point RA % of 1.4, individual patient): POSITIVE
Sample Positivity ([1]; Month 6, RA % vs cut-point 1.4, one line per patient): POSITIVE
Sample Positivity ([1]; Month 6, cut-point RA % of 1.4, individual patient): POSITIVE
Sample Positivity ([1]; Month 12, RA % vs cut-point 1.4, one line per patient): POSITIVE
antibody level versus baseline ([1]; about 12 months after the initial 40 mg/ml dose): higher than baseline
total anti-GA IgG levels ([1]; by month 6 of the treatment): decreased
rate of increase of antibody level ([1]; first month compared to after the first month to the third month): greater rate during the first month
non-baseline samples higher than the cut-point value (RA % of 1.4) ([1]; human, in vivo): 96.2%
antibody level after the peak versus baseline ([1]; month 24): did not reach the baseline level
